Counter-ions that a name gives are not always drawn.
Legend:
AlaRS^R329H [1] = molecular target: T1, AlaRS^R329H (Homo sapiens, UniProt P49588, R329H); assay: Biolayer interferometry (BLI); assay type: binding; details: immobilized AlaRS^R329H, 40, 20, 10, 5, 2.5 μM, mean ± SD, triplicate
T1 construct: made in house; host or cells: E. coli BL21 (DE3), pET-21a
T1 sequence (P49588 1-968 R329H): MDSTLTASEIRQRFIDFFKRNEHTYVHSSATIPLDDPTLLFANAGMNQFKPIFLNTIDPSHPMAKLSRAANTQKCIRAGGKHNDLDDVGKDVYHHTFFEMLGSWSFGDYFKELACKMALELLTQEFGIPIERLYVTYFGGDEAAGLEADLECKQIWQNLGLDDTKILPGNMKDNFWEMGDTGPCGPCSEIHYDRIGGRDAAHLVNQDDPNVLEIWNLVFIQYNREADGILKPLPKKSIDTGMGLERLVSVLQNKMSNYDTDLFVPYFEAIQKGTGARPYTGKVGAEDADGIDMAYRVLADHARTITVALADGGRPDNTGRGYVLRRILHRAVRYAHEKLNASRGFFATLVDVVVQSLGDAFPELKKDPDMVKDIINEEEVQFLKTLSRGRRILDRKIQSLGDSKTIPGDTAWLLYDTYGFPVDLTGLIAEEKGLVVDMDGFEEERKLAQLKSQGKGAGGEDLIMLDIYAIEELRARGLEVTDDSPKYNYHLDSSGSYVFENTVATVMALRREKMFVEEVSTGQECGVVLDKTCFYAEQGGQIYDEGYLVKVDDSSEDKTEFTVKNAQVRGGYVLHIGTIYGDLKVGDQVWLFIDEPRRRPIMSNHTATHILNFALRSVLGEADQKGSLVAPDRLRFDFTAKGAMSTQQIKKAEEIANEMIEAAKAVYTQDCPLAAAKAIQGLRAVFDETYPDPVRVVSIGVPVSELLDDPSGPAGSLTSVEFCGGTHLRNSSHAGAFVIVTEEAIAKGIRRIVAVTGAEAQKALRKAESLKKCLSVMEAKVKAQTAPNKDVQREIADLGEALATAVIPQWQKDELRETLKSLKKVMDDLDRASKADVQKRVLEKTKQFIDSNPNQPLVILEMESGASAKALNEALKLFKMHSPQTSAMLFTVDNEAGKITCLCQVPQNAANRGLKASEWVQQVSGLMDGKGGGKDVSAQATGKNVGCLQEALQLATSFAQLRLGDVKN
Source text: To quantitatively analyze the binding affinity between the small molecules and the CMT mutant proteins, we performed BLI analysis on the selected candidates. BLI offers direct measurements of drug–protein binding kinetics, including key parameters such as the equilibrium dissociation constant (KD), association rate (Kon), and dissociation rate (Koff). This analysis provided key insights into the binding affinities of the four small molecules with the mutant protein AlaRS^R329H. […] To further quantify the binding of small molecules to mutant proteins, binding experiments with AlaRS^R329H proteins and small molecules were conducted using an Octet R8 system (ForteBio, Fremont, CA, USA). Purified His-tagged AlaRS^R329H proteins (500 μg/mL) were captured on Ni-NTA biosensors (ForteBio, Fremont, CA, USA), achieving a saturation response of 4–5 nm after 300 s. The biosensors were then transferred to Octet buffer (PBS with 0.01% Tween 20) for 180 s to remove loosely bound, nonspecific proteins and to establish a stable baseline. Following this, the sensors were immersed in diluted Tanshinone I (2.5–100 μM in assay buffer) for 120 s to record the association signal, and then transferred back into Octet buffer to monitor the dissociation signal for 120 s. Reference wells containing buffer instead of Tanshinone I were included to correct for baseline shifts. Additionally, a parallel set of Ni-NTA sensors in buffer served as negative reference controls to account for nonspecific binding of the compounds to the biosensor surface. The data were processed using a double reference subtraction protocol to eliminate nonspecific signals, background noise, and signal drifts caused by biosensor variability. All assays were performed in 96-well black plates with a total volume of 200 μL per well at 30 °C. Data analysis, including correction and curve fitting, was carried out using Octet® Analysis Studio 12.2.2.26. The experiment was repeated three times.

AlaRS^R329H [2] = molecular target: T1, AlaRS^R329H; assay: Proteolytic digestion assay (trypsin, SDS-PAGE); details: 3 h
Method: To delve deeper into the impact of selected small molecules on the structural conformation of AlaRS^R329H proteins, a series of proteolysis experiments were conducted. The small molecules were incubated with AlaRS^R329H proteins at room temperature for three hours, followed by SDS-PAGE analysis to evaluate their effects on the distribution of the digestion fragments. […] The AlaRS^R329H proteins (in the presence and absence of Atazanavir sulfate, Tanshinone I, Hederacolchiside A1, and Hexylresorcinol) were incubated with trypsin at different concentrations for 3 h before the reactions were quenched, and the products were separated by SDS-PAGE.

AlaRS^R329H [3] = molecular target: T1, AlaRS^R329H; assay: Thermal shift assay (TSA); assay type: binding; details: positive hit = shift of more than 2.5 °C
Source text: In this assay, with increasing temperatures, the protein undergoes thermal unfolding, exposing its hydrophobic core. Subsequently, a fluorescent dye binds to these hydrophobic regions, becoming unquenched. Fluorescence is closely monitored, and the midpoint of the protein unfolding transition is designated as the Tm. Ligand binding frequently influences protein thermal stability during denaturation. Thus, the ligand binding affinity of any potential inhibitor can be gauged by evaluating the shift in the Tm. In this experiment, we screened a library of 2000 small molecules (Table S1) and classified as positive hits those that caused a shift in the Tm of the mutant protein of more than 2.5 °C. From the TSA, we identified four small molecules that met this criterion (Figure 2A, Table 1). Specifically, Atazanavir sulfate caused a shift of 4.0 °C, Tanshinone I a shift of 3.1 °C, Hederacolchiside A1 a shift of 4.3 °C, and Hexylresorcinol a shift of 5.5 °C (Figure 2B). To assess the impact of small molecules on the thermal stability of mutant proteins, thermal shift assays were performed using a […] (Applied Biosystems, Waltham, MA, USA) with the Protein Thermal Shift™ Kit dye (Thermo Fisher Scientific, Waltham, MA, USA). Each well of a 96-well Optical Reaction Plate (Applied Biosystems) contained 14 μL of thermal shift buffer, 2 μL of diluted thermal shift dye (8×), 2 μL of a 1 mM small molecule solution, and 2 μL of 1 mg/mL protein. Plates were incubated at 4 °C for 1 h before being heated from 25 °C to 95 °C at 1 °C/min. The fluorescence signal of SYPRO orange (excitation/emission: 490/530 nm) was recorded at 30 s intervals to monitor protein denaturation. The melting temperature (Tm), defined as the midpoint of the unfolding transition, was determined from the fluorescence–temperature curve. ΔTm was calculated as the difference in Tm between AlaRS^R329H treated with compounds and the control. Experiments were conducted in triplicate for accuracy. The experiment was repeated three times.

AlaRS^R329H [4] = molecular target: T1, AlaRS^R329H; assay: ATP consumption assay (enzyme inhibition); assay type: biochemical; details: 1 μM AlaRS^R329H at 20 μM compounds; vs DMSO control
Method: We further investigated the effects of the four small molecules on the enzymatic activity of the AlaRS^R329H protein using an ATP consumption assay. All four compounds affected enzymatic activity to varying degrees. […] The ATP consumption assay was used to evaluate the enzymatic inhibitory activity of the compounds. A 30 μL reaction mixture, containing 1 μM AlaRS mutants, 25 μM ATP, 50 μM L-alanine, 30 mM HEPES (pH 7.5), 150 mM NaCl, 30 mM KCl, 40 mM MgCl2, 0.1% BSA, and varying concentrations of Tanshinone I, was incubated at room temperature for 15 min. After incubation, 10 μL of the mixture was transferred to a 384-well microplate, and AlaRS mutant activity was measured by adding 10 μL of the ATP Assay Kit (#S0026, Beyotime, Shanghai, China). Luminescence was recorded using a Synergy HTX multimode microplate reader (BioTek Inc., Winooski, VT, USA). The inhibitory rate was calculated from three independent assays to ensure the accurate assessment of Tanshinone I’s inhibitory activity. The experiment was repeated three times.

Row | Kd (AlaRS^R329H [1]) [µM] | ΔTm (shift between the Tm values of AlaRS^R329H with and without compounds) (AlaRS^R329H [3]) [°C] | Relative Activity (relative enzyme activity of the first step) (AlaRS^R329H [4]) [%] | SMILES | Effect on distribution of digestion fragments / conformation (AlaRS^R329H [2])
1 | 28.6 ± 9.9 | 4.0 | 96.8 | COC(=O)N[C@H](C(=O)N[C@@H](Cc1ccccc1)[C@@H](O)CN(Cc1ccc(-c2ccccn2)cc1)NC(=O)[C@@H](NC(=O)OC)C(C)(C)C)C(C)(C)C [Atazanavir sulfate, reference compound] | minimal effects on the distribution of digestion fragments
2 | 10.1 ± 0.5 | 4.3 | 69.6 | C[C@@H]1O[C@@H](O[C@H]2[C@H](O[C@H]3CC[C@]4(C)[C@H]5CC=C6[C@@H]7CC(C)(C)CC[C@]7(C(=O)O)CC[C@@]6(C)[C@]5(C)CC[C@H]4C3(C)C)OC[C@H](O[C@@H]3O[C@H](CO)[C@@H](O)[C@H](O)[C@H]3O)[C@@H]2O)[C@H](O)[C@H](O)[C@H]1O [Hederacolchiside A1] | slight conformational change
3 | 26.3 ± 9.9 |  | 79.8 | CCCCCCc1ccc(O)cc1O [Hexylresorcinol, reference compound] | minimal effects on the distribution of digestion fragments

Reference: article PMC11509018, “Evaluation of the Role of Tanshinone I in an In Vitro System of Charcot-Marie-Tooth Disease Type 2N” (International Journal of Molecular Sciences, 2024)
